This passage reports IC50 results from PubChem BioAssay AID2305 (GlaxoSmithKline (GSK), 2010).

SMILES strings stand for the structures.

This experiment relates to P. falciparum 3D7 growth, pLDH absorbance. Description: P. falciparum 3D7 growth inhibition, dose response, strain 3D7 (AID 2305).

Consider `CN(C)C(CNC(=O)c1cc(-c2ccncc2)c(-c2ccc(NC(=O)Nc3cccc(F)c3)cc2)o1)c1ccccc1` (centres undefined), for which the half-inhibitory concentration (IC50) (as a rule, the midpoint of a concentration-inhibition curve) was 770 nM. Then `COc1ccc(S(=O)(=O)Nc2cc(Br)cc3c2OCCC3)cc1N1CCN(C(=O)C(Cl)(Cl)Cl)CC1`, with 870 nM; and `C[C@@H]1CN(c2cnn(C/C=C/c3ccc(NC(=O)c4ccc(Cl)cc4)cc3)c(=O)c2Cl)C[C@H](C)N1`, with 850 nM. Then `CC(Cc1ccc(OCc2ccccc2)cc1)Nc1nc2ccccc2c(=O)[nH]1` (centres undefined), with 570 nM; and `Fc1ccc(-c2cc(NCCCn3ccnc3)nc(-c3cccnc3)n2)cc1`, with 970 nM. `Cc1cc(-c2cc(Cl)ccc2Cl)no1` returned an IC50 of 170 nM. `CCCCN(C(=O)c1ccccc1Cl)c1nnc(-c2ccccc2C)s1` gave an IC50 of 1020 nM. Take `CCN(CC)CCN(Cc1ccc(-c2ccc(C(F)(F)F)cc2)cc1)C(=O)Cn1c(CCc2ccc(F)c(F)c2F)nc(=O)c2ccc(F)cc21`: the concentration for half-maximal inhibition (IC50) worked out at 740 nM.

In turn, `Cc1cccc2[nH]c(-c3cccc(-c4ccc(CNCc5ccccc5)cc4)c3)nc12` came in with a 50% inhibitory concentration (IC50) of 150 nM. Then `Cc1cc(=O)c(-c2ccc(Oc3cccc(OC(F)(F)F)c3)cc2)c(C)[nH]1`, with 200 nM.

`Fc1ccc2nc(-c3cccc(-c4cccc(CNCC5CCCO5)c4)c3)[nH]c2c1` (centres undefined) displayed an IC50 of 510 nM. Against the preceding molecule, the IC50 is about 2.5-fold higher. Then `COc1ccc(Cc2c(Cl)nc3nc(N)nc(N)c3c2C)cc1`, with 1090 nM; and `Cc1cccc2[nH]c(-c3ccc(-c4cccc(CN5CCC(CCN6CCCCC6)CC5)c4)s3)nc12`, with 140 nM.

Turning to `O=c1cc(NC[C@@H]2CCC[C@@H]2NCc2ccc(Cl)c(Cl)c2)[nH]c2ccccc12`, the IC50 is 600 nM. Next, `CCCCNC(c1ccc(Cl)cc1)C(O)c1ccc(Cl)cc1` (centres undefined): 620 nM; `COc1ccc2nccc([C@@H](O)CN3CCC(NCc4ccc5scnc5c4)CC3)c2c1`: 400 nM. In the case of `COCCNCc1cccc(-c2ccc3c(Nc4cc(O)c(Cl)cc4F)ccnc3c2)c1`, the IC50 is 110 nM. Next, `CS(=O)(=O)c1ccc(-c2cncc(Cl)n2)cc1`: 770 nM; `CCCN(CC1CC1)c1nc(C)nc2c(-c3ccccc3)cc(C)cc12`: 1020 nM; `N=c1n(CCN2CCCCC2)c2ccccc2n1CC(=O)c1cccc([N+](=O)[O-])c1`: 880 nM. Regarding `OC(COc1ccccc1-c1nc2ccccc2o1)CN1CCCN(CCc2ccccc2)CC1` (centres undefined), the IC50 came out at 760 nM. Next, `Cc1ccc2nc(C)n(C3CCN(C(=O)C4(c5ccccc5)CC4)CC3)c2c1`: 820 nM. The molecule `FC(F)(F)c1cccc(CNCC2CCN(CC3CCCCC3)CC2)c1` came in with an IC50 of 400 nM. This IC50 is about 2-fold lower than that of the molecule before. Then `O=C(Nc1cc(F)cc(F)c1)NC1CCN(CCCCCNC(=O)[C@@H]2C[C@H]2c2ccc(Cl)c(Cl)c2)CC1`, with 750 nM; and `C=CCN1C(=O)CN(S(=O)(=O)c2ccc(-n3nc(C)cc3C)cc2)C1=S`, with 940 nM. Next, `Cc1ccccc1C1CCN(C2CCC(NC(=O)c3cc4cc(Cl)ccc4o3)CC2)CC1` (centres undefined): 1200 nM; `CCCCCCN1CCN(Cc2cccc(NC(=O)c3cc4ccccc4s3)c2)CC1`: 910 nM. Then `CCCCCCCNC(=O)NCC1CCCN(CCCCCNC(=O)/C=C/c2ccc(Cl)c(Cl)c2)C1` (centres undefined), with 1040 nM; and `COc1ccc(C(=O)CC(=O)c2ccc(OC)cc2OC)c(OC)c1`, with 300 nM. Molecule `CCOc1ccc(C(C)NC(=O)c2cc(Cl)ccc2OC)cc1OCC` (centres undefined) yielded a 50% inhibitory concentration (IC50) of 970 nM. Against the preceding molecule, the IC50 is about 3.2-fold higher. Next, `OC(CNCc1cccc(Oc2ccc(Cl)cc2)c1)c1cc(C(F)(F)F)cc(C(F)(F)F)c1` (centres undefined): 260 nM; `O=C(COc1ccccc1)Nn1cnc2ccccc21`: 1050 nM; `CCCNC(=O)CN1CN(c2ccccc2)C2(CCN(C(=O)c3ccc(C(C)(C)C)cc3)CC2)C1=O`: 470 nM. Next, `Oc1ccc(CN2CCN(CCOC(c3ccc(F)cc3)c3ccc(F)cc3)CC2)cc1Cl`: 940 nM; `Cc1cccc(OC2CCN(c3ncc(C(=O)NCCCN4CCCC4=O)cc3Cl)CC2)c1`: 180 nM; `NC(=O)c1cc(-c2ccccc2)cc2c(C3CCC(NCc4ccccc4)C3)c[nH]c12` (centres undefined): 910 nM. `O=C(C=Cc1ccc(-c2nc3ccccc3[nH]2)cc1)NC1CCN(Cc2ccccc2)CC1` yielded an IC50 of 740 nM. In the case of `Cc1sc2ncnc(Sc3nnc(N)s3)c2c1C`, the half-maximal inhibitory concentration (IC50) turned out to be 400 nM.

As for `COC(=O)c1ccc(CC(C)NCC(O)c2ccc(Cl)c(Cl)c2)cc1` (centres undefined), the IC50 came out at 1000 nM. `CC(=O)c1cc(N2CCCC2)ccc1N`: the IC50 stood at 20 nM. Against the preceding molecule, the IC50 is about 50-fold lower. As to `O=C(Cc1c(-c2ccccc2)[nH]c2ccccc12)NC1CCC(CN2CCC(c3c[nH]c4ccccc34)CC2)CC1` (centres undefined), the IC50 amounted to 480 nM.

As to `CCC(NC(=O)c1ccccc1NC(=O)c1ccc(C)cc1)C(=O)OC` (centres undefined), the concentration for half-maximal inhibition (IC50) came to 760 nM. Compared with the last molecule, the IC50 is about 1.6-fold higher. In turn, `COc1ccc(O)c(Cc2cnc3nc(N)[nH]c(=O)c3c2C)c1` displayed a half-maximal inhibitory concentration (IC50) of 230 nM. Molecule `CCCc1cc([C@@H](O)[C@@H]2C[C@@H]3CCN2C[C@@H]3CC)c2ccccc2n1` returned a half-maximal inhibitory concentration (IC50) of 430 nM. Compared with the last molecule, the IC50 is about 1.9-fold higher.
